Data reported in patent publication US20080253978A1, “Derivatives of Pyrrolyltriazine Together with Methods for Obtaining Them and Their Use as Protecting Agents Uv Radiation” (ISDIN, S.A., priority 2005, published 2008).
Values joined by “and” are separate entries in the source; they are usually repeats but may differ in a detail not shown here. Equal values may be shown once.

Key:
[1] = UV absorption (λmax, εmax) in solution; format: physicochemical

With “2-(1-benzyl-1H-pyrrol-2-yl)-4,6-bis[4-(H-imidazo[1,2-a]pyridin-2-yl)phenylamino]-1,3,5-triazine [Example 10]” as the compound, how does the “UV λmax” value ([1]; DMSO) read?
The value was 338 nm.

And the εmax ([1]; DMSO)?
Its εmax is 55000 M⁻¹ cm⁻¹.

With Oc1ccc(-c2nc(-c3ccc(O)cc3O)nc(-c3cccn3Cc3ccccc3)n2)c(O)c1 [Example 1 b), 2-(1-benzyl-1H-pyrrol-2-yl)-4,6-bis(2,4-dihydroxyphenyl)-1,3,5-triazine] as the compound, how does the melting point read?
Its melting point is over 275 °C.

Which melting point does the source give for CCCCC(CC)COc1ccc(-c2nc(-c3ccc(OCC(CC)CCCC)cc3O)nc(-c3cccn3Cc3ccccc3)n2)c(O)c1 (stereo not drawn) [Example 1, 2-(1-benzyl-1H-pyrrol-2-yl)-4,6-bis[4-(2-ethylhexyloxy)-2-hydroxyphenyl]-1,3,5-triazine] here?
Its melting point is 66 to 68 °C.

And the εmax ([1]; chloroform)?
The εmax was 66000 M⁻¹ cm⁻¹.

And the λmax ([1]; chloroform)?
Its λmax is 350-352 nm.

Which melting point does the source give for CCCCOC(=O)c1ccc(Nc2nc(Nc3ccc(C(=O)OCCCC)cc3)nc(-c3cccn3Cc3ccccc3)n2)cc1 [Example 2, 2-(1-benzyl-1H-pyrrol-2-yl)-4,6-bis[4-(butoxycarbonyl)phenylamino]-1,3,5-triazine] here?
Its melting point is 173 to 174 °C.

And the εmax ([1]; chloroform)?
The εmax was 64000 M⁻¹ cm⁻¹.

What about the λmax ([1]; chloroform) of the same compound?
Its λmax is 312 nm.

With c1ccc(Cn2cccc2-c2nc(Nc3ccc(-c4ccccc4)cc3)nc(Nc3ccc(-c4ccccc4)cc3)n2)cc1 [Example 3, 2-(1-benzyl-1H-pyrrol-2-yl)-4,6-bis(biphenyl-4-ylamino)-1,3,5-triazine] as the compound, how does the melting point read?
Its melting point is 185 to 186 °C.

And the “UV λmax” value ([1]; ethanol)?
Its value is 309 nm.

What about the εmax ([1]; ethanol) of the same compound?
The εmax was 73000 M⁻¹ cm⁻¹.

What does the source list for O=C(c1ccccc1)c1ccc(Nc2nc(Nc3ccc(C(=O)c4ccccc4)cc3)nc(-c3cccn3Cc3ccccc3)n2)cc1 [Example 4, 2-(1-benzyl-1H-pyrrol-2-yl)-4,6-bis(4-benzoylphenylamino)-1,3,5-triazine]?
melting point: 115 to 118 °C; UV λmax ([1]; ethanol): 330 nm; εmax ([1]; ethanol): 80000 M⁻¹ cm⁻¹

What does the source list for O=C1c2ccccc2-c2cc(Nc3nc(Nc4ccc5c(c4)-c4ccccc4C5=O)nc(-c4cccn4Cc4ccccc4)n3)ccc21 [Example 5, 2-(1-benzyl-1H-pyrrol-2-yl)-4,6-bis(9-oxo-9H-fluoren-3-ylamino)-1,3,5-triazine]?
melting point: 140 to 142 °C; UV λmax ([1]; ethanol): 292 nm; εmax ([1]; ethanol): 77000 M⁻¹ cm⁻¹

What does the source list for c1ccc(Cn2cccc2-c2nc(Nc3ccc(-c4cn5ccccc5n4)cc3)nc(Nc3ccc(-c4cn5ccccc5n4)cc3)n2)cc1 [Example 6, 2-(1-benzyl-1H-pyrrol-2-yl)-4,6-bis[4-(imidazo[1,2-a]pyridin-2-yl)phenylamino]-1,3,5-triazine]?
UV λmax ([1]; ethanol): 332 nm; εmax ([1]; ethanol): 71000 M⁻¹ cm⁻¹

Which melting point does the source give for CCCCOC(=O)c1ccc(Nc2nc(Nc3ccc(C(=O)OCCCC)cc3)nc(-c3cccn3C(c3ccccc3)c3ccccc3)n2)cc1 [Example 7, 2-(1-benzydryl-1H-pyrrol-2-yl)-4,6-bis[4-(butoxycarbonyl)phenylamino]-1,3,5-triazine] here?
Its melting point is 80 to 82 °C.

What about the “UV λmax” value ([1]; ethanol) of the same compound?
The value was 315 nm.

What about the εmax ([1]; ethanol) of the same compound?
Its εmax is 81000 M⁻¹ cm⁻¹.

For CCCCC(CC)COC(=O)c1ccc(Nc2nc(Nc3ccc(C(=O)OCC(CC)CCCC)cc3)nc(-c3cccn3Cc3ccccc3)n2)cc1 (stereo not drawn) [Example 9, 2-(1-benzyl-1H-pyrrol-2-yl)-4,6-bis[4-((2-ethylhexyloxy)carbonyl)phenylamino]-1,3,5-triazine], which “UV λmax” value ([1]; CHCl3/MeOH) is on record?
Its value is 315 nm.

What about the εmax ([1]; CHCl3/MeOH) of the same compound?
Its εmax is 76000 M⁻¹ cm⁻¹.

For c1ccc(Cn2cccc2-c2nc(Nc3ccc(-c4nc5ccccc5[nH]4)cc3)nc(Nc3ccc(-c4nc5ccccc5[nH]4)cc3)n2)cc1 [Example 11, 2-(1-benzyl-1H-pyrrol-2-yl)-4,6-bis[4-(1H-benzo[d]imidazol-2-yl)phenylamino]-1,3,5-triazine], which “UV λmax” value ([1]; CHCl3/MeOH) is on record?
The value was 327 nm.

And the εmax ([1]; CHCl3/MeOH)?
Its εmax is 100000 M^1 cm^−1.

With c1ccc(Cn2cccc2-c2nc(Nc3ccc(-n4cccn4)cc3)nc(Nc3ccc(-n4cccn4)cc3)n2)cc1 [Example 12, 2-(1-benzyl-1H-pyrrol-2-yl)-4,6-bis[4-(1H-pyrazol-1-yl)phenylamino]-1,3,5-triazine] as the compound, how does the “UV λmax” value ([1]; MeOH) read?
The value was 307 nm.

And the εmax ([1]; MeOH)?
Its εmax is 67000 M⁻¹ cm⁻¹.

Which results are given for c1ccc(Cn2cccc2-c2nc(Nc3ccc4ccccc4c3)nc(Nc3ccc4ccccc4c3)n2)cc1 [Example 13, 2-(1-benzyl-1H-pyrrol-2-yl)-4,6-bis[naphthalen-2-ylamino]-1,3,5-triazine]?
UV λmax ([1]; MeOH): 263 nm and 308 nm; εmax ([1]; MeOH, at λmax=263 nm): 54000 M⁻¹ cm⁻¹; εmax ([1]; MeOH, at λmax=308 nm): 52000 M⁻¹ cm⁻¹

With CCOC(=O)/C=C/c1ccc(Nc2nc(Nc3ccc(/C=C/C(=O)OCC)cc3)nc(-c3cccn3Cc3ccccc3)n2)cc1 [Example 14, 2-(1-benzyl-1H-pyrrol-2-yl)-4,6-bis[4-((E)-3-ethoxy-3-oxoprop-1-enyl)phenylamino]-1,3,5-triazine] as the compound, how does the “UV λmax” value ([1]; MeOH) read?
The value was 336 nm.

And the εmax ([1]; MeOH)?
The εmax was 57000 M⁻¹ cm⁻¹.

For C(=C\c1ccc(Nc2nc(Nc3ccc(/C=C/c4ccccc4)cc3)nc(-c3cccn3Cc3ccccc3)n2)cc1)/c1ccccc1 [Example 15, 2-(1-benzyl-1H-pyrrol-2-yl)-4,6-bis[4-(E)-styrylphenylamino]-1,3,5-triazine], which “UV λmax” value ([1]; CHCl3) is on record?
The value was 336 nm.

And the εmax ([1]; CHCl3)?
Its εmax is 102000 M^1 cm^−1.
